Values quoted from earlier work, collected in US8079695B2, “Inkjet inks having improved print uniformity” (Eastman Kodak Company, priority 2008, dated 2011).

conditions: measured and predicted values (handbooks or ACD/LABS v8.14); lowest pKa given for di-carboxylic acids

| Compound | pKa |
| --- | --- |
| C=C(C)C(=O)O [Methacrylic acid (MA), Methacrylic acid] | 4.7 |
| C=CC(=O)O [Acrylic acid] | 4.3 |
| C=CC(=O)NC(C)(C)CS(=O)(=O)O [2-acrylamido-2-methylpropane sulfonic acid] | 1.7 |
| C/C(=C\C(=O)O)C(=O)O [Mesaconic acid] | 3.1 |
| C=C(C)C(=O)OCCS(=O)(=O)O [2-propenoic acid, 2-methyl-, 2-sulfoethyl ester] | 1.0 |
| C=C(Cl)C(=O)O [α-chloroacrylic acid] | 3.3 |
| O=C(O)/C=C/Cl [trans-chloroacrylic acid] | 3.7 |
| C=CCS(=O)(=O)O [Allyl sulfonic acid] | 1.5 |
